Test results: patent US20260337189A1, “Cryptolepine Salt Derivative, Preparation Method, and Use Thereof” (ZHEJIANG XINNONG CHEMICAL CO., LTD., priority 2023, published 2026)

What was measured:
[1] = system: tobacco Mosaic virus (TMV); experiment: Live protection function against tobacco Mosaic virus (TMV); assay type: in vivo; details: for Relative inhibition rate, live protection function: 500 mg/L, tobacco Xanthi nc, sprayed 24 h before inoculation, virus 10 μg/mL, 3 days; for inhibition at 500 µg/mL: Tobacco mosaic virus, read-out: Relative inhibition rate, live protection function
Method: (§1) Determination of anti-tobacco Mosaic virus (TMV) activity by the following procedure:
(§2) After weighing, cryptolepine salt derivative, ningnanmycin and the original drug of ribavirin were dissolved in DMF to obtain 1×10^5 μg/mL mother solution, and then diluted to the required concentration with 1%. Tween 80 aqueous solution.
(§3) Select the 3-5 leaf stage of tobacco Xanthi nc with uniform growth, spray the whole plant, repeat each treatment 3 times, and set 1%. Tween80 aqueous solution as control. 24 h later, the leaf surface was coated with emery (500 mesh), the disease venom was dipped with a brush, and the whole leaf surface was gently rubbed twice along the direction of the branch pulse by using the brush, the leaf was supported by palm of hand, the virus concentration was 10 μg/mL, and the leaf was washed by water after inoculation. After 3 days, the number of disease spots was recorded and the prevention and control effect was calculated.
(§4) Relative inhibition rate (%)=[(number of dead spots of control group-number of dead spots of test sample group)/number of dead spots of control group]×100%.

[2] = system: tobacco Mosaic virus (TMV); experiment: Live treatment effect against tobacco Mosaic virus (TMV); assay type: in vivo; details: 500 mg/L, tobacco Xanthi nc, sprayed after inoculation, virus 10 μg/mL, 3 days; for inhibition at 500 µg/mL: Tobacco mosaic virus, 72 h, read-out: Relative inhibition rate, live treatment effect
Method: as §1, §2
(§5) Select the 3-5 leaf stage of tobacco Xanthi nc with uniform growth, use a brush to vaccinate the virus in the whole leaf, the virus concentration is 10 μg/mL, and the leaf was washed with running water after inoculation. After the leaves were dried, the whole plant was sprayed with test sample, repeated 3 times every treatment, and 1%. Tween 80 aqueous solution was set as control. After 3 days, the number of disease spots was recorded and the prevention and control effect was calculated.
as §4

[3] = system: tobacco Mosaic virus (TMV); experiment: Living passivation activity test against tobacco Mosaic virus (TMV); assay type: in vivo; details: 500 mg/L, tobacco Xanthi nc, sample mixed with virus juice 30 min, virus 20 μg/mL, 3 days; for inhibition at 500 µg/mL: Tobacco mosaic virus, read-out: Relative inhibition rate, living passivation activity test
Method: as §1, §2
(§6) Select the 3-5 leaf stage of tobacco Xanthi nc with uniform growth, mix the test sample agent with the same volume of virus juice to passivate for 30 min, friction inoculation, virus concentration 20 μg/mL, the leaf was washed with running water after inoculation, repeat 3 times, set 1%. Tween 80 aqueous solution as control. 3 days later, the number of disease spots was calculated.
as §4
(§7) Anti-tobacco Mosaic virus passivation activity test of all compounds was at a treatment dose of 500 μg/mL. The positive control was the commercial anti-plant virus agent viriazole.

rice sheath blight = experiment: Test of resistance to rice sheath blight (bactericidal activity test); assay type: in vivo; details: for Resistance to rice sheath blight: 400 mg/L, rice seedlings, sprayed 24 h before inoculation, 6 days after inoculation, visual inspection; for bactericidal activity against rice sheath blight: live pot test, Table 5, 400 mg/L
Method: Bactericidal activity test, the determination procedure is as follows:
Test of resistance to rice sheath blight: Select uniformly growing rice seedlings and spray them on the leaves at the set concentration, set a water spraying group as blank control, every treatment was repeated twice. After 24 h, the rice seedlings were inoculated with rice sheath blight strains and placed at room temperature (25±4° C.) for normal management after inoculation. The prevention and control effect was investigated by visual inspection 6 days after inoculation.

Plasmodium falciparum = details: cited from earlier work
[4] = system: tobacco Mosaic virus (TMV); experiment: Anti-tobacco Mosaic virus (TMV) activity, overall comparison of Test Example 1; assay type: in vivo; details: 500 μg/mL; Table 4
Method: as §1, §2, §3, §5, §6, §4, §7

C[n+]1c2ccccc2c(NC2CCCC2)c2[nH]c3ccccc3c21 [Example 29]
Relative inhibition rate, live protection function [1]: 38.6 ± 4.6% | Relative inhibition rate, live treatment effect [2]: 36.5 ± 2.3% | Relative inhibition rate, living passivation activity test [3]: 30.5 ± 0.9% | Resistance to rice sheath blight (rice sheath blight): 30 ± 0%

CCCCCNc1c2ccccc2[n+](C)c2c1[nH]c1ccccc12 [Example 24]
inhibition at 500 µg/mL [1]: 36.9 ± 3.7% | inhibition at 500 µg/mL [2]: 30.3 ± 0.8% | inhibition at 500 µg/mL [3]: 35.2 ± 1% | Resistance to rice sheath blight (rice sheath blight): 30 ± 0%

Cn1c2c3ccccc3nc-2cc2ccccc21 [cryptolepine]
activity against Plasmodium falciparum compared with Chloroquine (Plasmodium falciparum): comparable activity against Plasmodium falciparum to Chloroquine

C[n+]1c2ccccc2c(NCC2CCNCC2)c2[nH]c3ccccc3c21.[I-] [Example 42]
inhibition at 500 µg/mL [1]: 28.1 ± 3% | inhibition at 500 µg/mL [2]: 30.2 ± 2.1% | inhibition at 500 µg/mL [3]: 25.1 ± 0.2% | Resistance to rice sheath blight (rice sheath blight): 25 ± 5%

C[n+]1c2ccccc2c(NCCCN)c2[nH]c3ccccc3c21.[I-] [Example 33]
inhibition at 500 µg/mL [1]: 57.9 ± 4.6% | inhibition at 500 µg/mL [2]: 51.7 ± 3.6% | inhibition at 500 µg/mL [3]: 49.8 ± 3.1% | Resistance to rice sheath blight (rice sheath blight): 40 ± 0% | TMV activity compared with ribavirin [4]: better TMV activity than the ribavirin | anti-TMV activity compared with commercial Ningnanmycin [4]: comparable to that of commercial Ningnanmycin

Cc1ccc(S(=O)(=O)n2c3ccc(F)cc3c3c2cc2ccccc2[n+]3C)cc1 [Example 4]
Relative inhibition rate, live protection function [1]: 21.6 ± 3.4% | Relative inhibition rate, live treatment effect [2]: 18.6 ± 1.2% | Relative inhibition rate, living passivation activity test [3]: 14.1 ± 1.3% | Resistance to rice sheath blight (rice sheath blight): 60 ± 0% | bactericidal activity against rice sheath blight (rice sheath blight): more than 50%

C[n+]1c2ccccc2c(NCCCN2CCCCC2)c2[nH]c3ccccc3c21 [Example 47]
Relative inhibition rate, live protection function [1]: 36.4 ± 2.8% | Relative inhibition rate, live treatment effect [2]: 33.3 ± 2.0% | Relative inhibition rate, living passivation activity test [3]: 35.7 ± 0.3% | Resistance to rice sheath blight (rice sheath blight): 45 ± 5% | bactericidal activity against rice sheath blight (rice sheath blight): more than 50%

CCCCCCCCCCCCNc1c2ccccc2[n+](C)c2c1[nH]c1ccccc12 [Example 25]
inhibition at 500 µg/mL [1]: 27.3 ± 3% | inhibition at 500 µg/mL [2]: 22.1 ± 1.1% | inhibition at 500 µg/mL [3]: 35.1 ± 0.1% | Resistance to rice sheath blight (rice sheath blight): 20 ± 0%

Cc1ccc(S(=O)(=O)n2c3ccc(I)cc3c3c2cc2ccccc2[n+]3C)cc1.[Cl-] [Example 7]
inhibition at 500 µg/mL [1]: 44.5 ± 0.4% | inhibition at 500 µg/mL [2]: 43 ± 3.5% | inhibition at 500 µg/mL [3]: 47.7 ± 3.1% | Resistance to rice sheath blight (rice sheath blight): 40 ± 0% | TMV activity compared with ribavirin [4]: better TMV activity than the ribavirin

C[n+]1c2ccccc2c(NCCCCN)c2[nH]c3ccccc3c21.[I-] [Example 34]
Resistance to rice sheath blight (rice sheath blight): 20 ± 0% | TMV activity compared with ribavirin [4]: better TMV activity than the ribavirin | anti-TMV activity compared with commercial Ningnanmycin [4]: comparable to that of commercial Ningnanmycin

CCCCC(CC)CNc1c2ccccc2[n+](C)c2c1[nH]c1ccccc12 (centres unmarked) [Example 27]
Resistance to rice sheath blight (rice sheath blight): 30 ± 0% | TMV activity compared with ribavirin [4]: better TMV activity than the ribavirin | anti-TMV activity compared with commercial Ningnanmycin [4]: comparable to that of commercial Ningnanmycin
